The target in assay [1] is purified DHFR of the reference strain S. aureus ATCC 25923 (Staphylococcus aureus, UniProt P0A017). Description: Inhibition of purified DHFR of reference strain S. aureus ATCC 25923. The assay is classed as biochemical. The text has this: (§1) The inhibition of this enzyme was taken as a measurement of the antibacterial activity.
Assay [2] deals with T1, purified DHFR of the opportunistic pathogen P. carinii (Pneumocystis carinii, UniProt P16184).
T1 sequence (P16184 1-206): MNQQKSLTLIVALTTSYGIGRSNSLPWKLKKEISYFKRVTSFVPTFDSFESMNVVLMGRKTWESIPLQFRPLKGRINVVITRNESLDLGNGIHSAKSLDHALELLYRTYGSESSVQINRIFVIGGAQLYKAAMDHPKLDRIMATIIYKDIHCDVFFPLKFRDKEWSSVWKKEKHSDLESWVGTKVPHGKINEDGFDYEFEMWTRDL
Description: biochemical. The note with it: IC50 determined by means of a graph.
Text: as §1

Assay [3] has as its target purified DHFR of the multiresistant strain S. aureus 157/4696 (Staphylococcus aureus, UniProt P13955). As to the kind of experiment: Inhibition of purified DHFR of multiresistant strain S. aureus 157/4696. The assay is classed as biochemical.
Text: as §1

The IC50 is the midpoint of a concentration-inhibition curve. Read a low IC50 as inhibition by little substance.

Turning to `COc1cc(Cc2cnc(N)nc2N)cc(/C=C/C(=O)N2CCc3ccccc3C2c2ccc(C(N)=O)nc2)c1OC` (racemic) [Example 39, (E)-(R,S)-5-[2-[3-[5-(2,4-Diamino-pyrimidin-5-ylmethyl)-2,3-dimethoxy-phenyl]-acryloyl]-1,2,3,4-tetrahydro-isoquinolin-1-yl]-pyridine-2-carboxamide], the IC50 in assay [1] was 1.2 nM; in assay [2], 30 µM; in assay [3], 1.8 nM.

As for `COc1cc(Cc2cnc(N)nc2N)cc(/C=C/C(=O)N2CCc3ccccc3C2c2ccc(C#N)cc2)c1OC` (racemic) [Example 23], the IC50 in assay [1] was determined as 0.5 nM; in assay [2], 10 µM; in assay [3], 0.9 nM.

Regarding `COc1cc(Cc2cnc(N)nc2N)cc(/C=C/C(=O)N2CCc3ccccc3C2c2ccc(C)cc2)c1OC` (racemic) [Example 16, (E)-(RS)-3-[5-(2,4-Diamino-pyrimidin-5-ylmethyl)-2,3-dimethoxy-phenyl]-1-[1-(4-methyl-phenyl)-3,4-dihydro-1H-isoquinolin-2-yl]-propenone], the figures for the IC50 in assay [1], in assay [2] and in assay [3] were 0.2 nM, 0.33 µM and 4.8 nM, respectively.

Turning to `COc1cc(Cc2cnc(N)nc2N)cc(/C=C/C(=O)N2CCc3ccccc3C2c2ccccn2)c1OC` (racemic) [Example 3, (E)-(RS)-3-[5-(2,4-Diamino-pyrimidin-5-ylmethyl)-2,3-dimethoxy-phenyl]-1-(1-pyridin-2-yl-3,4-dihydro-1H-isoquinolin-2-yl)-propenone], the half-inhibitory concentration (IC50) in assay [1] is 9 nM; in assay [2] it was 17 µM; in assay [3] it was 9.5 nM.

Take `COc1cc(Cc2cnc(N)nc2N)cc(/C=C/C(=O)N2CCc3ccccc3C2c2cccs2)c1OC` (racemic) [Example 27, (E)-(RS)-3-[5-(2,4-Diamino-pyrimidin-5-ylmethyl)-2,3-dimethoxy-phenyl]-1-(1-thiophen-2-yl-3,4-dihydro-1H-isoquinolin-2-yl)-propenone]: the figures for the IC50 in assay [1], in assay [2] and in assay [3] were 1.6 nM, 3.8 µM and 1.8 nM, respectively.

For the compound `COc1cc(Cc2cnc(N)nc2N)cc(/C=C/C(=O)N2CCc3ccccc3[C@@H]2c2ccccn2)c1OC` [Example 1, (E)-(R)-3-[5-(2,4-diamino-pyrimidin-5-ylmethyl)-2,3-dimethoxy-phenyl]-1-(1-pyridin-2-yl-3,4-dihydro-1H-isoquinolin-2-yl)-propenone], the IC50 was found to be 5 nM in assay [1], 8 µM in assay [2] and 8 nM in assay [3].

For the compound `COc1cc(Cc2cnc(N)nc2N)cc(/C=C/C(=O)N2CCc3ccccc3C2c2ccc(S(C)(=O)=O)cc2)c1OC` (racemic) [Example 40, (E)-(R,S)-3-[5-(2,4-Diamino-pyrimidin-5-ylmethyl)-2,3-dimethoxy-phenyl]-1-[1-(4-methanesulphonyl-phenyl)-3,4-dihydro-1H-isoquinolin-2-yl]-propenone], the IC50 in assay [1] was 0.7 nM; in assay [2], 0.55 µM; in assay [3], 1.2 nM.

On to `COc1cc(Cc2cnc(N)nc2N)cc(/C=C/C(=O)N2CCc3ccccc3C2c2ccc(C)nc2)c1OC` (racemic) [Example 32, (E)-(RS)-3-[5-(2,4-Diamino-pyrimidin-5-ylmethyl)-2,3-dimethoxy-phenyl]-1-[1-(6-methyl-pyridin-3-yl)-3,4-dihydro-1H-isoquinolin-2-yl]-propenone], for which the IC50 was found to be 1.8 nM in assay [1], 10 µM in assay [2] and 1.3 nM in assay [3].

With `COc1ccc2c(c1)C(c1ccccn1)N(C(=O)/C=C/c1cc(Cc3cnc(N)nc3N)cc(OC)c1OC)CC2` (racemic) [Example 8, (E)-(RS)-3-[5-(2,4-Diamino-pyrimidin-5-ylmethyl)-2,3-dimethoxy-phenyl]-1-(7-methoxy-1-pyridin-2-yl-3,4-dihydro-1H-isoquinolin-2-yl)-propenone], the IC50 in assay [1] came to 5 nM; in assay [2] it was 5 µM; in assay [3], 9 nM.

On to `COc1cc(Cc2cnc(N)nc2N)cc(/C=C/C(=O)N2CCc3ccccc3C2c2ccc(Cl)cn2)c1OC` (racemic) [Example 34, (E)-(RS)-1-[1-(5-Chloro-pyridin-2-yl)-3,4-dihydro-1H-isoquinolin-2-yl]-3-[5-(2,4-diamino-pyrimidin-5-ylmethyl)-2,3-dimethoxy-phenyl]-propenone], for which the values for the IC50 in assay [1], in assay [2] and in assay [3] were 2.4 nM, 10 µM and 1.7 nM, respectively.

As to `COc1cc(Cc2cnc(N)nc2N)cc(/C=C/C(=O)N2CCc3ccccc3C2c2ccc(O)cc2)c1OC` (racemic) [Example 21, (E)-(RS)-3-[5-(2,4-Diamino-pyrimidin-5-ylmethyl)-2,3-dimethoxy-phenyl]-1-[1-(4-hydroxy-phenyl)-3,4-dihydro-1H-isoquinolin-2-yl]-propenone], the IC50 is 5.5 nM in assay [1], 0.38 µM in assay [2] and 13 nM in assay [3].

Turning to `COc1cc(Cc2cnc(N)nc2N)cc(/C=C/C(=O)N2CCc3ccccc3C2c2ccc(Cl)nc2)c1OC` (racemic) [Example 36, (E)-(RS)-1-[1-(6-Chloro-pyridin-3-yl)-3,4-dihydro-1H-isoquinolin-2-yl]-3-[5-(2,4-diamino-pyrimidin-5-ylmethyl)-2,3-dimethoxy-phenyl]-propenone], the IC50 is 0.8 nM in assay [1], 6.2 µM in assay [2] and 3 nM in assay [3].

These data come from patent US5866583A, “Substituted 2,4-diaminopyrimidines” (Hoffmann-La Roche Inc., priority 1996, dated 1999).
